# Patent publication US20020137929A1, “1 - (3-heterocyclylphenyl) isothiourea, -isourea, -guanidine and -amidine herbicidal agents” (Intellectual Property Department, BASF Aktiengesellschaft, priority 1998, published 2002)
# What was measured:
# ECHCG (Barnyardgrass) = test: Preemergence herbicidal evaluation; format: in vivo, Echinochloa crus-galli; settings: rated 4-5 weeks after treatment
# Outline: (§1)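 Seeds were mixed with potting soil and planted on about one inch of soil, then sprayed with test compound in aqueous acetone at about 0.0156 to 0.500 kg per hectare. Plants grew under standard greenhouse care and were visually rated 0-9 against untreated controls 4-5 weeks post-treatment.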
# MOOVA (Monochoria) = test: Preemergence weed control under flooded paddy conditions; format: in vivo, Monochoria vaginalis; settings: rated 3-4 weeks after treatment
# Outline: (§2)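 Silt loam, seeds in top 0.5 cm; flood held 1.5-3 cm; test cpd as acetone/water 50/50 into flood water, ~0.0313-0.500 kg/ha a.i.; greenhouse 3-4 wk; visual 0-9 score vs control.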
# [1] = test system: TRZAWR (Wheat, Winter, cv Riband); test: Preemergence herbicidal evaluation; format: in vivo, Triticum aestivum; settings: rated 4-5 weeks after treatment
# Outline: as §1
# [2] = test system: IPOHE (Morningglory, Ivyleaf); test: Preemergence herbicidal evaluation; format: in vivo, Ipomoea hederacea; settings: rated 4-5 weeks after treatment
# Outline: as §1
# ABUTH (Velvetleaf) = test: Postemergence herbicidal evaluation; format: in vivo, Abutilon theophrasti
# Outline: (§3)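 Visual 0–9 rating versus control (stand, vigor, malformation, size, chlorosis, overall appearance), taken four to five weeks post-spray. Two-week-old seedlings received roughly 0.0156–0.500 kg/ha active in acetone/water (50/50) with 0.5% TWEEN 20 via nozzle at 40 psi.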
# [3] = test system: TRZAWR (Wheat, Winter, cv Riband); test: Postemergence herbicidal evaluation; format: in vivo, Triticum aestivum
# Outline: as §3
# ORYSAT (Rice, Tebonnet) = test: Preemergence herbicidal evaluation; format: in vivo, Oryza sativa, (L.) Tebonnet; settings: rated 4-5 weeks after treatment
# Outline: as §1
# [4] = test system: ECHORC (Watergrass (Calif.)); test: Postemergence weed control under flooded paddy conditions; format: in vivo, Echinochloa oryzoides; settings: postemergence weeds, 3-4 weeks after treatment
# Outline: (§4)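 With weeds 3 to 5 cm tall and rice at the 1.5 to 2.5 leaf stage, containers were flooded and water held 1.5 to 3 cm above soil. Compounds in 50/50 v/v aqueous/acetone went into the flood water at about 0.0313 to 0.500 kg/ha a.i. Effects were visually rated 0–9 against controls after three to four weeks in the greenhouse.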
# SETVI (Foxtail, Green) = test: Preemergence herbicidal evaluation; format: in vivo, Setaria viridis; settings: rated 4-5 weeks after treatment
# Outline: as §1
# CYPIR (Rice Flatsedge) = test: Postemergence weed control under flooded paddy conditions; format: in vivo, Cyperus iria; settings: postemergence weeds, 3-4 weeks after treatment
# Outline: as §4
# [5] = test system: CHEAL (Lambsquarters, Common); test: Preemergence herbicidal evaluation; format: in vivo, Chenopodium album; settings: rated 4-5 weeks after treatment
# Outline: as §1
# [6] = test system: ECHORC (Watergrass (Calif.)); test: Preemergence weed control under flooded paddy conditions; format: in vivo, Echinochloa oryzoides; settings: rated 3-4 weeks after treatment
# Outline: as §2
# [7] = test system: IPOHE (Morningglory, Ivyleaf); test: Postemergence herbicidal evaluation; format: in vivo, Ipomoea hederacea
# Outline: as §3
smiles,measurement,setting,value
"CCOC(=O)CN1C(=O)CSC1=Nc1cc(N2C(=O)C3=C(CCCC3)C2=O)c(F)cc1Cl [Compound 47, Ethyl 2-{[2-chloro-5-(1-cyclohexene-1,2-dicarboximido)-4-fluorophenyl]imino}-4-oxo-3-thiazolidineacetate]",Preemergence herbicidal rating ECHCG,ECHCG (Barnyardgrass); rate 0.0156 kg/ha,0.0
same,Preemergence herbicidal rating ECHCG,ECHCG (Barnyardgrass); rate 0.0313 kg/ha,0.0
same,Preemergence herbicidal rating ECHCG,ECHCG (Barnyardgrass); rate 0.0625 kg/ha,0.0
same,Preemergence herbicidal rating ECHCG,ECHCG (Barnyardgrass); rate 0.1250 kg/ha,0.0
same,Preemergence herbicidal rating ECHCG,ECHCG (Barnyardgrass); rate 0.2500 kg/ha,0.0
same,Herbicidal rating MOOVA,MOOVA (Monochoria); 0.0313 kg/ha,5.0
same,Herbicidal rating MOOVA,MOOVA (Monochoria); 0.0625 kg/ha,6.0
same,Herbicidal rating MOOVA,MOOVA (Monochoria); 0.1250 kg/ha,9.0
same,Herbicidal rating MOOVA,MOOVA (Monochoria); 0.2500 kg/ha,9.0
same,Preemergence herbicidal rating TRZAWR,[1]; rate 0.0156 kg/ha,0.0
same,Preemergence herbicidal rating TRZAWR,[1]; rate 0.0313 kg/ha,0.0
same,Preemergence herbicidal rating TRZAWR,[1]; rate 0.0625 kg/ha,0.0
same,Preemergence herbicidal rating TRZAWR,[1]; rate 0.1250 kg/ha,0.0
same,Preemergence herbicidal rating TRZAWR,[1]; rate 0.2500 kg/ha,0.0
same,Preemergence herbicidal rating IPOHE,[2]; rate 0.0156 kg/ha,0.0
same,Preemergence herbicidal rating IPOHE,[2]; rate 0.0313 kg/ha,0.0
same,Preemergence herbicidal rating IPOHE,[2]; rate 0.0625 kg/ha,0.0
same,Preemergence herbicidal rating IPOHE,[2]; rate 0.1250 kg/ha,0.0
same,Preemergence herbicidal rating IPOHE,[2]; rate 0.2500 kg/ha,9.0
same,Postemergence herbicidal rating ABUTH,ABUTH (Velvetleaf); Rate 0.0156 kg/ha,9.0
same,Postemergence herbicidal rating ABUTH,ABUTH (Velvetleaf); Rate 0.0313 kg/ha,9.0
same,Postemergence herbicidal rating ABUTH,ABUTH (Velvetleaf); Rate 0.0625 kg/ha,9.0
same,Postemergence herbicidal rating TRZAWR,[3]; Rate 0.0156 kg/ha,2.5
same,Postemergence herbicidal rating TRZAWR,[3]; Rate 0.0313 kg/ha,3.5
same,Postemergence herbicidal rating TRZAWR,[3]; Rate 0.0625 kg/ha,4.5
same,Preemergence herbicidal rating ORYSAT,"ORYSAT (Rice, Tebonnet); rate 0.0156 kg/ha",0.0
same,Preemergence herbicidal rating ORYSAT,"ORYSAT (Rice, Tebonnet); rate 0.0313 kg/ha",0.0
same,Preemergence herbicidal rating ORYSAT,"ORYSAT (Rice, Tebonnet); rate 0.0625 kg/ha",0.0
same,Preemergence herbicidal rating ORYSAT,"ORYSAT (Rice, Tebonnet); rate 0.1250 kg/ha",0.0
same,Preemergence herbicidal rating ORYSAT,"ORYSAT (Rice, Tebonnet); rate 0.2500 kg/ha",0.0
same,Herbicidal rating ECHORC,[4]; rate 0.0313 kg/ha,0.0
same,Herbicidal rating ECHORC,[4]; rate 0.0625 kg/ha,2.0
same,Herbicidal rating ECHORC,[4]; rate 0.1250 kg/ha,4.0
same,Herbicidal rating ECHORC,[4]; rate 0.2500 kg/ha,7.0
same,Preemergence herbicidal rating SETVI,"SETVI (Foxtail, Green); rate 0.0156 kg/ha",0.0
same,Preemergence herbicidal rating SETVI,"SETVI (Foxtail, Green); rate 0.0313 kg/ha",0.0
same,Preemergence herbicidal rating SETVI,"SETVI (Foxtail, Green); rate 0.0625 kg/ha",0.0
same,Preemergence herbicidal rating SETVI,"SETVI (Foxtail, Green); rate 0.1250 kg/ha",0.0
same,Preemergence herbicidal rating SETVI,"SETVI (Foxtail, Green); rate 0.2500 kg/ha",4.0
same,Herbicidal rating CYPIR,CYPIR (Rice Flatsedge); rate 0.0313 kg/ha,0.0
same,Herbicidal rating CYPIR,CYPIR (Rice Flatsedge); rate 0.0625 kg/ha,0.0
same,Herbicidal rating CYPIR,CYPIR (Rice Flatsedge); rate 0.1250 kg/ha,4.0
same,Herbicidal rating CYPIR,CYPIR (Rice Flatsedge); rate 0.2500 kg/ha,6.0
same,Preemergence herbicidal rating CHEAL,[5]; rate 0.0156 kg/ha,9.0
same,Preemergence herbicidal rating CHEAL,[5]; rate 0.0313 kg/ha,9.0
same,Preemergence herbicidal rating CHEAL,[5]; rate 0.0625 kg/ha,9.0
same,Preemergence herbicidal rating CHEAL,[5]; rate 0.1250 kg/ha,9.0
same,Preemergence herbicidal rating CHEAL,[5]; rate 0.2500 kg/ha,9.0
same,Herbicidal rating ECHORC,[6]; 0.0313 kg/ha,0.0
same,Herbicidal rating ECHORC,[6]; 0.0625 kg/ha,2.0
same,Herbicidal rating ECHORC,[6]; 0.1250 kg/ha,4.0
same,Herbicidal rating ECHORC,[6]; 0.2500 kg/ha,7.0
same,Postemergence herbicidal rating IPOHE,[7]; Rate 0.0156 kg/ha,9.0
same,Postemergence herbicidal rating IPOHE,[7]; Rate 0.0313 kg/ha,9.0
same,Postemergence herbicidal rating IPOHE,[7]; Rate 0.0625 kg/ha,9.0
